Results reported in ChEMBL document CHEMBL1143316, “Japonicones A-D, bioactive dimeric sesquiterpenes from Inula japonica Thunb” (Bioorg Med Chem Lett, 2009).
Values after ≈ are worked out from the molar mass of the structure shown.

Experiments:
Type in all cases: functional, cell-based
LoVo = assay: Cytotoxicity against human LoVo cells by MTT assay
MDA-MB-435 = assay: Cytotoxicity against human MDA-MB-435 cells by MTT assay
A549 = assay: Cytotoxicity against human A549 cells by MTT assay
CCRF-CEM = assay: Cytotoxicity against human CEM cells by MTT assay

`C=C1C(=O)O[C@@H]2C[C@@H](C)[C@]34C[C@]5(C(=O)O[C@H]6C[C@@]7(C)C(=C[C@H]65)[C@H](C)CC[C@@H]7O)[C@H](C(C)=C3C[C@@H]12)[C@@H]4OC(C)=O` [JAPONICONE A] showed an IC50 (LoVo) of 0.256 µg/mL (≈ 0.477 µM), an IC50 (MDA-MB-435) of 0.198 µg/mL (≈ 0.369 µM) and an IC50 (A549) of 1.62 µg/mL (≈ 3.02 µM). It also gave an IC50 (CCRF-CEM) of 0.001 µg/mL (≈ 0.00186 µM).
